Measurements: paper PMC5976192, “Design of a glutamine substrate tag enabling protein labelling mediated by Bacillus subtilis transglutaminase” (PLoS ONE, 2018)

Biological target: T1, bTG (Bacillus subtilis transglutaminase) (Bacillus subtilis, UniProt P40746)
T1 construct: gene tgl; recombinant, expressed in E. coli in active form and purified; about 28 kDa; construct details only in S1 File
T1 sequence (P40746 1-245): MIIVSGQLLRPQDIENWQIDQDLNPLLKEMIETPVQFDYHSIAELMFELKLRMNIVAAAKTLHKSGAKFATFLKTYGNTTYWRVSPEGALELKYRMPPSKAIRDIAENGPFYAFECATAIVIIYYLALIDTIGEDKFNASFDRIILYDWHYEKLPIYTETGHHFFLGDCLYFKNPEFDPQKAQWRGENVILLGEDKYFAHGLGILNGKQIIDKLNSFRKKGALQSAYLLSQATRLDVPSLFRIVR
Assay: GDH-coupled assay; fluorescent labelling on SDS-PAGE
Type: biochemical
Details: acyl acceptor at 5 mM; 0.8 μM Q-tagged mRuby2 as acyl donor; 0.1 U bTG; 20 min; gel labelling 3 h at 37 °C; initial rates only

## CN(C)c1cccc2c(S(=O)(=O)NCCCCCN)cccc12 [dansyl-cadaverine]
  GDH-coupled assay; fluorescent labelling on SDS-PAGE: initial rates of transamidation between Q-tagged mRuby2 and dansyl-cadaverine were measured using the GDH-coupled assay
